Read-outs that look alike come from different tables or passages of the source.

Series [1] can be described thus: in vitro. To be noted: human, CRL-8155 lymphoblastoid cell line.
The nature of the next series: PK Oral (MMV). It counts as in vivo. To be noted: dose 25 mg/kg.
The test system of another series is U2OS. Nature of the series: Proliferation EC50, U2OS. Type of series: cell-based. To be noted: Homo sapiens, Table 2. As for the experimental part:
(§1) Anti-tumor activity was determined by screening a series of compounds against the castrate-resistant, androgen-receptor-positive, prostate cancer cell line LNCaP95. […] Inhibition of proliferation was determined based on the level of LNCaP95 cell growth suppression using an MTT assay (NAD(P)H-dependent cellular oxidoreductase enzymatic activities)) read at 72 and 96 hours after addition of the compounds. […] Each cell line was be tested in quadruplicate.
(§2) C4-2 and C4-2B3 are derived from LNCaP but have different characteristics. […] LNCaP, C4-2 and C4-2B require androgen receptor but only LNCaP line is androgen sensitive.
(§3) RWPE-1 is immortalized benign prostate hypertrophic cell line. […] LAPC4 is AR+ castrate resistant line not LNCaP-based prostate cancer. […] HFF1 is human foreskin fibroblast cell line. NCI-H660 is neuroendocrine (NE) prostate cancer human AR− cell line. MSKCC-EF1 is NE human prostate AR- or nearly negative prostate cancer cell line. MCF7 is human breast cancer cell line. U2OS is human osteosarcoma cell line. HepG2 is hepatoma liver tumor cell line. CRL8155 is lymphoblastoid cell line.

The next series concerns APIPC. Kind of series: Proliferation EC50, APIPC. The following applies: Table 2. It counts as cell-based.
A short description of series [2]: Plasma protein binding, mouse. It counts as in vitro ADME.
In the next series the test system is LNCaP. Kind of series: MTT proliferation assay, LNCaP. To be noted: Homo sapiens. On the technique in general: Tetrazolium assays rely on reduction of a dye to a coloured formazan, in cell work by metabolically active cells.
A further series relates to C4-2. Kind of series: Proliferation EC50, C4-2. To be noted: Table 2. It counts as cell-based. As for the experimental part:
as §1, §2

Another series has as its system LNCaP95. Kind of series: MTT proliferation assay, LNCaP95. It counts as cell-based. To be noted: Homo sapiens, LNCaP-95; for EC50: Table 1, LNCaP95 (AR+ PCa), unit inferred; for inhibition at 10 µM: read-out: MTT % inhib @ 10 μM LNCaP95. As for the experimental part:
as §1

Another series concerns HFF-1. Kind of series: Proliferation EC50, HFF-1. Type of series: cell-based. The following applies: Homo sapiens, Table 2. As for the experimental part: as §1, §2, §3
The subject of the next series is PC3. Kind of series: MTT proliferation assay, PC3. The following applies: Homo sapiens; for inhibition at 10 µM: PC-3, read-out: MTT % inhib @ 10 μM PC3.
The next series relates to ATP levels. Kind of series: Time course of ATP levels, Compound 1 with oligomycin (FIG. 4). Type of series: cell-based. To be noted: co-administration with oligomycin.
A short description of series [3]: Cell death when mitochondria respiration is blocked (FIGS. 5A-5C). Type of series: cell-based.
The subject of another series is C4-2B. Kind of series: Proliferation EC50, C4-2B. Type of series: cell-based. The following applies: Table 2. As for the experimental part: as §1, §2
The subject of another series is 16D. Nature of the series: Proliferation EC50, 16D. Type of series: cell-based. To be noted: Table 2.
The test system of series [4] is intracellular ATP in LNCaP95. Nature of the series: Intracellular ATP in LNCaP95 (CellTiter-Glo). Type of series: cell-based. To be noted: FIG. 1, without oligomycin. (In general: In ATP-based viability assays light output follows the ATP content of the culture.)
Experimental: The relative intracellular levels of ATP were evaluated by CellTiter-Glo® Luminescent Cell Viability Assay. 2-DG is 2-deoxy-d-glucose.
OXPHOS is oxidative phosphorylation; oligo is oligomycin; AA is antimycin A; ETX is etomoxir; FCCP is carbonyl cyanide-4-trifluoromethoxy)phenylhydrazone; and Rot is rotenone.
The next series has as its system MSKCC-EF1. Nature of the series: Proliferation EC50, MSKCC-EF1. It counts as cell-based. To be noted: Homo sapiens; Table 2. Here is the method:
as §1, §2, §3

The test system of the next series is 42D. Nature of the series: Proliferation EC50, 42D. Type of series: cell-based. The following applies: Table 2.
The subject of the next series is 42F. Kind of series: Proliferation EC50, 42F. It counts as cell-based. To be noted: Table 2.
For the next series, the system named is LNCaP cells. Kind of series: Cell death in LNCaP cells, alone or in combination, 24 h (FIG. 6). It counts as cell-based. Here is the method: FIG. 6 evaluation of Compound 1 and metformin in LNCaP cells. LNCaP cells were treated with Compound 1, oligomycin (Oli), 2-deoxy-d-glucose (2-DG), or metformin (Met), alone or in combination for 24 h.
FIGS. 2-4 provide additional results on the activity of the compounds of the disclosure. […] Co-administration of Compound 1 and metformin is illustrated in FIG. 6. LNCaP cells were treated with Compound 1, oligomycin (Oli), 2-deoxy-d-glucose (2-DG), or metformin (Met), alone or in combination for 24 h. […] None of compounds were sufficient to kill cells under the same conditions on their own.

Another series has as its system HEPG2. Kind of series: Cell toxicity, HEPG2 hepatoma cell line. The following applies: read-out: EC50 HepG2; Table 2.
The target in the next series is hERG (Homo sapiens, UniProt Q12809). Nature of the series: hERG. To be noted: Table 1; last column beside CC50 (μM), own unit not clearly printed. (In general: Block of hERG is tested as a sign of cardiac risk.)
hERG, sequence (Q12809 whole entry): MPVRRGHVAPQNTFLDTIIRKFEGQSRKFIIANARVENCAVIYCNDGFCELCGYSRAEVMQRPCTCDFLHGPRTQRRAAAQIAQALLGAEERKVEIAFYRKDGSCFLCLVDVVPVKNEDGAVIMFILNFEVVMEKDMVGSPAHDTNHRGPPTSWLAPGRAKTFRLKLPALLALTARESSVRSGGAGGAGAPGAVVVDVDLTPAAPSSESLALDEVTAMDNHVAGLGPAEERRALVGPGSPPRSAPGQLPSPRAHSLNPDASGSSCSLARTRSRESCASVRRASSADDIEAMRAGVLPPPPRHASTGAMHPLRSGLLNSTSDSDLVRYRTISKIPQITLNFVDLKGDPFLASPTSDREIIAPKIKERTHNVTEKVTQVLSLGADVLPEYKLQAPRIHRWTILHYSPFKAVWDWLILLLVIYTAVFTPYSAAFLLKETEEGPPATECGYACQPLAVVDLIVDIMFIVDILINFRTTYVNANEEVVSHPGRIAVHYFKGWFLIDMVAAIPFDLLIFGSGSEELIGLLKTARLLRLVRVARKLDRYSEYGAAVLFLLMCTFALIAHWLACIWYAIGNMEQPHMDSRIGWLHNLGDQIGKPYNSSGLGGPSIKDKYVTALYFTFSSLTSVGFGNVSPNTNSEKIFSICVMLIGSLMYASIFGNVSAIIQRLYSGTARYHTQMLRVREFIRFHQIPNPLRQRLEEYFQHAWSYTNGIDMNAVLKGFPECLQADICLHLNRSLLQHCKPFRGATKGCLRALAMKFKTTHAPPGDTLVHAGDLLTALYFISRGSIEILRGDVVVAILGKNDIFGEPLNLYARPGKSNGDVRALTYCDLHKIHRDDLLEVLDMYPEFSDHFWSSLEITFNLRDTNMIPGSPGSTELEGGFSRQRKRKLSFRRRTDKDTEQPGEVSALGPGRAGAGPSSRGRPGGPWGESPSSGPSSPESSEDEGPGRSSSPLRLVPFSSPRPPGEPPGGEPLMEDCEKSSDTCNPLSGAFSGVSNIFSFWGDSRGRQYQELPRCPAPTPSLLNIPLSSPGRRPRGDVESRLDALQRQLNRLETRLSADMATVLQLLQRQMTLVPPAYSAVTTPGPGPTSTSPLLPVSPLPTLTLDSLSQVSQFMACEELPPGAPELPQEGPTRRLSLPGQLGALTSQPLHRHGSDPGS
Series [5] in a line: in vitro. The following applies: human, HepG2 hepatoma cell line.
The subject of a further series is NCI-H660. Kind of series: Proliferation EC50, NCI-H660. It counts as cell-based. To be noted: Homo sapiens, Table 2. Here is the method:
as §1, §2, §3

A further series has as its system CRL-8155. Nature of the series: Cell toxicity, CRL-8155 lymphoblastoid cell line. To be noted: read-out: EC50 CRL8155; Table 2.
For another series, the system named is MCF7. Kind of series: Proliferation EC50, MCF7. It counts as cell-based. The following applies: Homo sapiens, Table 2. As for the experimental part: as §1, §2, §3
Another series deals with DU145. Nature of the series: Proliferation EC50, DU145. Type of series: cell-based. The following applies: Homo sapiens, DU-145; Table 2.
Series [6] can be described thus: Plasma protein binding, rat. Type of series: in vitro ADME.
For another series, the system named is RWPE-1. Kind of series: Proliferation EC50, RWPE-1. It counts as cell-based. To be noted: Homo sapiens, Table 2. Here is the method:
as §1, §2, §3

A further series deals with LAPC4. Kind of series: Proliferation EC50, LAPC4. It counts as cell-based. To be noted: Homo sapiens, Table 2. As for the experimental part:
as §1, §2, §3

The nature of series [7]: Plasma protein binding, human. Type of series: in vitro ADME.
For series [8] the following is noted: background statement; cited from earlier work.
For series [9] the following is noted: background statement; cited from earlier work. The source holds these as a separate data set.
A further series relates to prostate cancer tumor. The following applies: 60 mg/kg, 2× daily; cited from earlier work.

Turning to `CNc1ncnc2c1c(-c1ccc3cc(OC4CC4)ccc3c1)nn2CC(C)(C)O` [Example 1, 1-(3-(6-cyclopropoxynaphthalen-2-yl)-4-(methylamino)-1H-pyrazolo[3,4-d]pyrimidin-1-yl)-2-methylpropan-2-ol], the cytotoxic concentration (CC50) in “in vitro [1]” and in “in vitro [5]” was over 80 µM in each case. In “PK Oral (MMV)”, this molecule came in with an exposure (AUC) of 28935 µmol·min/L. Also, in “PK Oral (MMV)” (in vivo), the concentration peaked (Cmax) at 34 µM. The time to peak (Tmax) in the series “PK Oral (MMV)” (in vivo) was 3 h. Also, the EC50 is over 20 µM in the series on U2OS; 10 µM with APIPC; 8 µM with LNCaP (read-out: EC50 LNCaP); 12 µM in the series with C4-2; 5 µM with LNCaP95; over 20 µM with HFF-1. Moreover, the EC50 in the series on PC3 (PC-3, read-out: EC50 PC3) was over 20 µM; in the series on PC3 (read-out: EC50 PC3), over 20 µM; in the series on C4-2B it was 12 µM; with 16D it was 10 µM; in the series with MSKCC-EF1 it was 5 µM; with 42D it was 10 µM. Further, the concentration for a half-maximal effect (EC50) in the series with 42F was 20 µM; in the series with HEPG2, over 40 µM; in the series on NCI-H660 it was 10 µM; with CRL-8155, over 40 µM; in the series with MCF7 it was 8 µM; in the series with DU145, over 20 µM. In addition, the half-maximal effective concentration (EC50) with RWPE-1 was over 20 µM; in the series with LAPC4 it was 7 µM. Also, the free fraction (fraction unbound) in series [2] was 0.012; in series [6], 0.04; in [7], 0.007. The inhibition at 10 µM in the series on LNCaP (read-out: MTT % inhib @ 10 μM LNCaP) worked out at 35.4%; in the series on LNCaP95, 51.5%; with PC3 it was 16.8%. For the same molecule, in the series with ATP levels, the “earliest time at which ATP levels are altered” value amounted to 10 min. For the same molecule, in [3], the “cell death when mitochondria respiration is blocked” value is listed as “induces cell death”. Besides, the “change in ATP levels, compound alone” value in series [4] was “no change”. Besides, the “cell death in combination with oligomycin or metformin” value in the series on LNCaP cells is on record as “cause cell death”. This molecule also gave a hERG at hERG of 13.9.
Regarding `O=CC[C@@H](O)[C@H](O)[C@H](O)CO` [Example 2-DG, 2-deoxy-d-glucose, reference compound], the “cell death in combination with oligomycin or metformin” value with LNCaP cells is given as “cause cell death”.
As for `CC(C)(C)n1nc(Cc2cccc3ccccc23)c2c(N)ncnc21` [Example 1NM-PP1], the metabolism result in series [8] is “quickly metabolized”. Further, the solubility result in series [9] is reported as “low solubility”.
For `CCOc1ccc2cc(-c3cn(CC(C)(C)O)c4ncnc(NC)c34)ccc2c1` [Example 11, 1-(5-(6-ethoxynaphthalen-2-yl)-4-(methylamino)-7H-pyrrolo[2,3-d]pyrimidin-7-yl)-2-methylpropan-2-ol], the CC50 in “in vitro [1]” and in the series “in vitro [5]” was over 80 µM throughout. In series [2], the fraction unbound is 0.0019. Besides, the EC50 in the series on LNCaP95 is 3 µM; in the series with PC3 (read-out: EC50 PC3), over 20 µM. The inhibition at 10 µM in the series on LNCaP95 stood at 55.6%; in the series on PC3 it was 1.6%.
Consider `CNc1ncnc2c1c(-c1ccc3cc(OC4CC4)ccc3c1)cn2CC(C)(C)O` [Example 15, 1-(5-(6-cyclopropoxynaphthalen-2-yl)-4-(methylamino)-7H-pyrrolo[2,3-d]pyrimidin-7-yl)-2-methylpropan-2-ol], for which the cytotoxic concentration (CC50) in the series “in vitro [1]” and in “in vitro [5]” was over 80 µM each time. This molecule also showed an unbound share (fraction unbound) in series [2] of 0.0017. In addition, the figures for the half-maximal effective concentration (EC50) in the series on LNCaP95 and in the series with PC3 (read-out: EC50 PC3) were 8 µM and over 20 µM, respectively. Further, the inhibition at 10 µM with LNCaP95 came to 53.2%; in the series with PC3, 2.8%.
Take `Fc1ccc(Cl)cc1-c1nc(Nc2ccncc2)c2nccnc2n1` [SD-208]: in the series with prostate cancer tumor, the “prostate cancer tumor growth in vivo” value was “decrease in prostate cancer tumor growth”.
As for `CCOc1ccc2cc(-c3nn(CC(C)(C)O)c4ncnc(NC)c34)ccc2c1` [Example 14, 1-(3-(6-ethoxynaphthalen-2-yl)-4-(methylamino)-1H-pyrazolo[3,4-d]pyrimidin-1-yl)-2-methylpropan-2-ol], the CC50 in the series “in vitro [1]” and in “in vitro [5]” was over 80 µM throughout. This molecule also gave a fraction unbound in series [2] of 0.0079. For the same molecule, the results for the half-maximal effective concentration (EC50) with LNCaP95 and in the series with PC3 (read-out: EC50 PC3) were 12 µM and over 20 µM, respectively. Moreover, the inhibition at 10 µM was 42.7% in the series with LNCaP95 and -3.5% in the series on PC3.
Turning to `CC(C)(C)n1nc(-c2cccc3ccccc23)c2c(N)ncnc21` [Example 1NA-PP1], the metabolism entry in [8] was “quickly metabolized”. Also, the solubility result in series [9] was “low solubility”.

The CC50 is the concentration that lowers cell viability or growth by half. Lower therefore signals greater toxicity to the cells. One may read the AUC as concentration integrated over time. For orientation: Cmax means the peak of the concentration-time curve. What is called Tmax is the time from dosing to the highest level. As a reminder, the EC50 is the concentration that produces a half-maximal response. For orientation: fraction unbound means the share of the substance not bound to proteins or other matrix. A lower fraction unbound goes with little free substance.

Source of the values: US12522606B2, “Modified pyrrolo- and pyrazolo-pyrimidines for prostate cancer therapy” (University of Washington, priority 2020, dated 2026).
